Laboratory results taken from patent US10624875B2, “Methods and compositions for treating schizophrenia” (The Johns Hopkins University, priority 2012, dated 2020).
“And” between values parts separate entries of the source, which are not always exact repeats. Equal values may be shown once.

Legend:
[1] = system: aged-impaired (AI) rats; test: eight-arm Radial Arm Maze (RAM) task with one-hour delay, spatial memory retention; assay type: in vivo, rat; conditions: drug on its own (levetiracetam i.p., valproate subcutaneous)
Protocol: The effects of levetiracetam on the spatial memory retention of aged-impaired (AI) rats were assessed in a Radial Arm Maze (RAM) behavioral task using vehicle control and five different dosage levels of levetiracetam (1.25 mg/kg/day, 2.5 mg/kg/day, 5 mg/kg/day, 10 mg/kg/day and 20 mg/kg/day). RAM behavioral tasks were preformed on ten AI rats. All six treatment conditions were tested on all ten rats, as described above for the MWM test. The RAM apparatus used consisted of eight equidistantly-spaced arms. An elevated maze arm (7 cm width×75 cm length) projected from each facet of an octagonal center platform (30 cm diameter, 51.5 cm height). Clear side walls on the arms were 10 cm high and were angled at 65° to form a trough. A food well (4 cm diameter, 2 cm deep) was located at the distal end of each arm. Froot Loops™ (Kellogg Company) were used as rewards. Blocks constructed of Plexiglas™ (30 cm height×12 cm width) could be positioned to prevent entry to any arm. Numerous extra maze cues surrounding the apparatus were also provided. The AI rats were initially subjected to a pre-training test (Chappell et al. Neuropharmacology 37: 481-487, 1998). The pre-training test consisted of a habituation phase (4 days), a training phase on the standard win-shift task (18 days) and another training phase (14 days) in which a brief delay was imposed between presentation of a subset of arms designated by the experimenter (e.g., 5 arms available and 3 arms blocked) and completion of the eight-arm win-shift task (i.e., with all eight arms available). In the habituation phase, rats were familiarized to the maze for an 8-minute session on four consecutive days. In each of these sessions food rewards were scattered on the RAM, initially on the center platform and arms and then progressively confined to the arms. After this habituation phase, a standard training protocol was used, in which a food pellet was located at the end of each arm. Rats received one trial each day for 18 days. Each daily trial terminated when all eight food pellets had been obtained or when either 16 choices were made or 15 minutes had elapsed. After completion of this training phase, a second training phase was carried out in which the memory demand was increased by imposing a brief delay during the trial. At the beginning of each trial, three arms of the eight-arm maze were blocked. Rats were allowed to obtain food on the five arms to which access was permitted during this initial ‘information phase’ of the trial. Rats were then removed from the maze for 60 seconds, during which time the barriers on the maze were removed, thus allowing access to all eight arms. Rats were then placed back onto the center platform and allowed to obtain the remaining food rewards during this ‘retention test’ phase of the trial. The identity and configuration of the blocked arms varied across trials. The number of “errors” the AI rats made during the retention test phase was tracked. An error occurred in the trial if the rats entered an arm from which food had already been retrieved in the pre-delay component of the trial, or if it re-visited an arm in the post-delay session that had already been visited. After completion of the pre-training test, rats were subjected to trials with more extended delay intervals, i.e., a one-hour delay, between the information phase (presentation with some blocked arms) and the retention test (presentation of all arms). […]

[2] = system: MAM-treated rats; conditions: cited from earlier work
[3] = system: MAM-treated rats; conditions: administered systemically and directly infused into the ventral HPC; cited from earlier work
[4] = system: HPC neurons; conditions: saline-treated and MAM-treated animals; cited from earlier work

CCCC(CCC)C(=O)O [Valproate]
dose effective in reducing the number of errors [1]: 100 mg/kg
dose not effective in reducing the number of errors [1]: 25 mg/kg and 50 mg/kg

C#Cc1ccc2c(c1)C(c1ccccc1F)=N[C@H](C)c1c(C(=O)OCC)ncn1-2 [SH-053-2′F—R—CH3]
increased locomotor response to amphetamine [2]: is reduced
number of spontaneously active DA neurons in the ventral tegmental area (VTA) [3]: reduces the number of spontaneously active DA neurons
cortical-evoked responses of HPC neurons [4]: diminished cortical-evoked responses
